Experimental findings from patent US20080221107A1, “Therapeutic Agents” (ASTRAZENECA AB, priority 2005, published 2008) are described below.

In assay [1] the target is T1, human Melanin concentrating hormone receptor 1 (hMCHr1) (Homo sapiens, UniProt Q99705).
T1 construct: purchased Euroscreen; host or cells: CHO-K1 cells (recombinant expression; membranes)
Description: MCHr1 receptor radioligand binding (125I-MCH, membranes from CHO-K1 cells). The note with it: 125I-MCH displacement, CHO-K1 membranes expressing hMCHr1, 30° C. 60 minutes; read-out: IC50 in human MCHr binding assay. How it is done:
Assays were performed in a 96-well plate format in a final reaction volume of 200 μl per well. […] Filters were washed with assay buffer.
Non-specific binding was subtracted from all values determined. […] Binding of compounds at various concentrations was plotted according to the equation

For a further assay, the target named is hERG (Homo sapiens, UniProt Q12809). Description: hERG activity (planar-array-based voltage clamp, modified Kiss et al. method). Type of assay: cell-based. On the procedure:
hERG testing was performed using a modified version of the method described by Kiss L, Bennett P B, Uebele V N, Koblan K S, Kane S A, Neagle B, Schroeder K. “High throughput ion-channel pharmacology: planar-array-based voltage clamp.” Assay Drug Dev Technol. 1, 127-35. (2003).
For orientation: The hERG channel carries a current that helps repolarise heart muscle cells.

Each structure is given as a SMILES string. A value given as a limit tells only on which side of the number the result lay.

Chain of hERG (Q12809 whole entry): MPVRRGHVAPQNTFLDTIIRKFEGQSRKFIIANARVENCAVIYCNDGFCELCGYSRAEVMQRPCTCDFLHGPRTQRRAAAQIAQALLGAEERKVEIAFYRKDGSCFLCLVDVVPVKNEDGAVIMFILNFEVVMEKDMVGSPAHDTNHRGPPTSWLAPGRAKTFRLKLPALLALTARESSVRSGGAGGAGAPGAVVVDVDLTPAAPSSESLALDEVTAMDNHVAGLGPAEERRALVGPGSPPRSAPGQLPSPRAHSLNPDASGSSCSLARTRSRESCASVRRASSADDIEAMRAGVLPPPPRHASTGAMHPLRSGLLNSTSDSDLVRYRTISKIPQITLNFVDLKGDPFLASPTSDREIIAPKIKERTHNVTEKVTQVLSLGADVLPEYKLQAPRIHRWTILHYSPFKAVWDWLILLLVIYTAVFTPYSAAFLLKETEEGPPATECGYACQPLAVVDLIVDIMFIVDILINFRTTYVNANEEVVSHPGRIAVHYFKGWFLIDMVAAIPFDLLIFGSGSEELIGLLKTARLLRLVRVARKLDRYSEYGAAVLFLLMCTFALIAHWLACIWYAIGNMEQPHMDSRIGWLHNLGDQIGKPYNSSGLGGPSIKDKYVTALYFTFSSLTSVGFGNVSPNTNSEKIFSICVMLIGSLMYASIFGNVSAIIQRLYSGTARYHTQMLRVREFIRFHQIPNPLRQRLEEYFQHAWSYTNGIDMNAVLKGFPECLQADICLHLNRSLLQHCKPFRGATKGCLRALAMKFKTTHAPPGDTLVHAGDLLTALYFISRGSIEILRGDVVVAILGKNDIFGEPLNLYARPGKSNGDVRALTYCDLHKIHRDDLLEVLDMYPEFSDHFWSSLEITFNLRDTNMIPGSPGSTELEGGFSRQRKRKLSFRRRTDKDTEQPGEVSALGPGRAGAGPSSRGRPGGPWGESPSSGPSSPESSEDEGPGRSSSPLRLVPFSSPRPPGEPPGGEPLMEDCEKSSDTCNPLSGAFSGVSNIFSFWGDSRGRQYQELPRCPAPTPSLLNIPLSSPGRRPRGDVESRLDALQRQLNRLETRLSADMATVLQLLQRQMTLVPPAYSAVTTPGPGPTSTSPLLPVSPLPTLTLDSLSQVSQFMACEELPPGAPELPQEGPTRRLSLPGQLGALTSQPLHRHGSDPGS
T1 sequence (Q99705 whole entry): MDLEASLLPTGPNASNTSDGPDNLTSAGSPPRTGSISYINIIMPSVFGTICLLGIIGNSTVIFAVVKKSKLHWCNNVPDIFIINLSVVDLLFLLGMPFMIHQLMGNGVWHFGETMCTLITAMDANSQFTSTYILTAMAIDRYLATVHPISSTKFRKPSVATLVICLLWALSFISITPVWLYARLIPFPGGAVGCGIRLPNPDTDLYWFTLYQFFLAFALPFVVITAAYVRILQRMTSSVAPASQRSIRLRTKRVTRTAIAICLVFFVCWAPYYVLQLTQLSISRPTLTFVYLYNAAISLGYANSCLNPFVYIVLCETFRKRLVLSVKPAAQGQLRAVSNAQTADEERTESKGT

`COc1cc(-n2nnc3cc(-c4ccc(Cl)cc4)sc3c2=O)ccc1N1CC[C@@H](O)C1` [Example 1, 6-(4-Chlorophenyl)-3-{4-[(3R)-3-hydroxypyrrolidin-1-yl]-3-methoxyphenyl}thieno[3,2-d][1,2,3]triazin4(3D)-one]: the half-maximal inhibitory concentration (IC50) in assay [1] was 0.011 µM; against hERG it was over 5 µM.

The IC50 is the concentration that gives 50% inhibition.
